Measured values published in patent US7452695B2, “Methods for increasing polypeptide production” (Immunex Corporation, priority 2002, dated 2008).
“And” between values parts separate entries of the source, which are not always exact repeats. Equal values may be shown once. Read-outs that look alike come from different tables or passages of the source.

Key:
[1] = tested on: cell line #9; test: Induction effects of xanthine derivatives in cell line #9, shake flasks, 6 days at 31° C. (Example 5); format: cell-based, Chinese hamster; conditions: for protein titer compared with the no inducer control culture: concentrations of Table 3 (0.1-1 mM xanthines; 0.5 mM butyrate)
Experimental: To dissolve 3-isobutyl-1-methylxanthine (IBX), it was solubilized in water heated to almost the boiling point, and quickly added to the flasks before it precipitated. […] The induction phase of the cell culture was carried out for 6 days at 31° C., and samples were removed for analysis at 3 day and 6 day timepoints.

[2] = tested on: CHO cells stably transformed with nucleic acids encoding a type II IL-1 receptor; test: Production of type II IL-1 receptor with HMBA in a bioreactor (Example 9); format: cell-based, Chinese hamster; conditions: 2 mM, added at shift to 31° C. after 2 days at 37° C., 12 more days
Experimental: About 500 thousand cells from a stably transformed line were inoculated into a one liter of serum-free medium in a bioreactor. Cells were grown for two days at 37° C. Thereafter, cells were shifted to 31° C., either without HMBA or in the presence of 2 mM HMBA, and grown for 12 more days. Thereafter, all medium was harvested. […] Data from this experiment are shown in Table 6 as a percentage of the average of the protein titers obtained from the two samples without HMBA rounded to the nearest whole number.

[3] = tested on: CHO cells stably transformed with nucleic acids encoding RANK:Fc; test: Production of RANK:Fc with HMBA, caffeine and/or butyric acid, shaker flask, 5 days at 31° C. (Example 8); format: cell-based, Chinese hamster
Experimental: Nucleic acids encoding RANK:Fc inserted into a suitable vector (as described in International Application WO 01/36637) were introduced into CHO cells. […] Cells were grown for a total of 5 days in shaker flasks. Thereafter, all medium was harvested. The number of cells present in the culture was determined by staining with trypan blue and counting the cells in a hemocytometer. […] An average number of cells in the culture was calculated by averaging the starting and ending cell numbers. Specific productivity was determined from the total number of micrograms of RANK:Fc produced, an average cell number (calculated as described above), and the number of days of growth. Nucleic acids encoding RANK:Fc inserted into a suitable vector (as described in International Application WO 01/36637) were introduced into CHO cells. […] Cells were grown for a total of 5 days in a shaker flask. Thereafter, all medium was harvested. The number of cells present in the culture, the titer of RANK:Fc per milliliter of harvested medium, and specific productivity were determined as described above in Example 7.

[4] = tested on: CHO cells stably transformed with nucleic acids encoding an antibody against a murine IL-4 receptor
[5] = tested on: CHO cells stably transformed with nucleic acids encoding RANK:Fc; test: Production of RANK:Fc with varying amounts of HMBA, shaker flasks, 5 days at 31° C. (Example 7); format: cell-based, Chinese hamster
Experimental: Nucleic acids encoding RANK:Fc inserted into a suitable vector (as described in International Application WO 01/36637) were introduced into CHO cells. […] Cells were grown for a total of 5 days in shaker flasks. Thereafter, all medium was harvested. The number of cells present in the culture was determined by staining with trypan blue and counting the cells in a hemocytometer. […] An average number of cells in the culture was calculated by averaging the starting and ending cell numbers. Specific productivity was determined from the total number of micrograms of RANK:Fc produced, an average cell number (calculated as described above), and the number of days of growth.

[6] = tested on: CHO cell production line genetically engineered to express TNFR:Fc (cell line #5); test: Induction of TNFR:Fc expression, shaker flasks, 5 days at 31° C. (Example 1); format: cell-based, Chinese hamster
Experimental: CHO cells were grown in spinner flasks at 37° C. using serum-free growth medium containing methotrexate. […] The cells, at initial cell densities of 2×10^6 cells/ml in 20 ml, were placed in 125 ml plastic Erlenmeyer flasks with plug seal caps and placed on shaker platforms in incubators set to the appropriate temperatures. Cell viability and number were monitored by haemocytometer counting using trypan blue dye. Recombinant polypeptide titers were assessed by ELISA-based assays. […] A flask containing no inducing compound was also included. The shaker flasks were incubated in this induction phase for 5 days at 31° C. in incubators without carbon dioxide control.

In the case of `CC(C)Cn1c(=O)n(C)c(=O)c2[nH]cnc21` [IBX, 3-isobutyl-1-methylxanthine], the “Titer (μg/ml) Day 3” value ([1]; 0.5 mM) is reported as 150 µg/mL, the “Titer (μg/ml) Day 6” value ([1]; 0.5 mM) is reported as 420 µg/mL and the “production compared with caffeine” value ([1]; 0.5 mM) is reported as “even better than caffeine”.
`Cn1cnc2c1c(=O)[nH]c(=O)n2C` [theobromine, 3,7-dimethylxanthine] was tested, and the “Titer (μg/ml) Day 3” value ([1]; 0.1 mM) was 90 µg/mL, the “Titer (μg/ml) Day 6” value ([1]; 0.1 mM) was 270 µg/mL and the “Titer (μg/ml) Day 3” value ([1]; 0.5 mM) was 100 µg/mL. For the same compound, the “Titer (μg/ml) Day 6” value ([1]; 0.5 mM) was 260 µg/mL, the “Titer (μg/ml) Day 3” value ([1]; 1 mM) was 100 µg/mL and the “Titer (μg/ml) Day 6” value ([1]; 1 mM) was 260 µg/mL. The “protein titer compared with the no inducer control culture” value [1] was “did not induce protein titers above that seen in the no inducer control culture”.
For `CC(=O)NCCCCCCNC(C)=O` [HMBA, hexamethylene bisacetamide], the “Relative Titer of type II IL-1 Receptor (percent of average of samples without HMBA)” value [2] was 120% and 125%, the “Specific productivity (μg/10^6 cells/day)” value ([3]; 2 mM) was 22.8 μg/10^6 cells/day and the “Titer of RANK: Fc” value ([3]; 2 mM) was 410 µg/mL. For the same compound, the “production of the antibody compared with no inducer” value ([4]; 2 mM) was “enhanced production of the antibody”, the “extent of enhancement of antibody production compared with sodium butyrate (0.5 mM)” value ([4]; 2 mM, 31° C.) was “to a greater extent than did sodium butyrate” and the “Specific productivity (μg/10^6 cells/day)” value ([5]; 0.1 mM) was 19.1 μg/10^6 cells/day. The “Titer of RANK: Fc” value ([5]; 0.1 mM) was 243 µg/mL, the “Specific productivity (μg/10^6 cells/day)” value ([5]; 0.5 mM) was 19.5 μg/10^6 cells/day and the “Titer of RANK: Fc” value ([5]; 0.5 mM) was 347 µg/mL. For the same compound, the “Specific productivity (μg/10^6 cells/day)” value ([5]; 2.0 mM) was 23.9 μg/10^6 cells/day and the “Titer of RANK: Fc” value ([5]; 2.0 mM) was 444 µg/mL.
In the case of `Cn1c(=O)c2c(ncn2C)n(C)c1=O` [caffeine, 1,3,7-trimethylxanthine], the “rate of production compared with 0.2 mM butyrate culture” value ([6]; 0.5 mM) is reported as “slightly higher rates of production”, the “rate of productivity per cell compared with no inducing agent” value ([6]; 2 mM) is reported as “higher” and the “Specific productivity (μg/10^6 cells/day)” value ([3]; 1 mM) is reported as 23.6 μg/10^6 cells/day. For the same compound, the “Titer of RANK: Fc” value ([3]; 1 mM) was 362 µg/mL.
With `CCCC(=O)O` [Butyric acid, butyric acid] the “Specific productivity (μg/10^6 cells/day)” value ([3]; 0.5 mM) was 31.6 μg/10^6 cells/day and the “Titer of RANK: Fc” value ([3]; 0.5 mM) was 476 µg/mL.
For `CCCC(=O)[O-].[Na+]` [butyrate, sodium butyrate], the “rate (in μg protein/10^6 cells/day) relative to control cultures” value ([6]; 0.2 mM) was “about 1.07 times the rate of control cultures”, the “total protein (in μg/ml) relative to control culture” value ([6]; 0.2 mM) was “about 1.11 times the total protein produc” and the “Titer (μg/ml) Day 3” value ([1]; 0.5 mM) was 100 µg/mL. The “Titer (μg/ml) Day 6” value ([1]; 0.5 mM) was 220 µg/mL, the “protein titer compared with the no inducer control culture” value [1] was “does not induce increased protein titer over that seen in a culture with no inducer” and the “production of the antibody compared with no inducer” value ([4]; 0.5 mM) was “enhanced production of the antibody”.
In the case of `Cn1c(=O)c2[nH]cnc2n(C)c1=O` [aminophylline, theophylline compound with 1,2-ethylenediamine (2:1) dihydrate], the “Titer (μg/ml) Day 3” value ([1]; 0.1 mM) is reported as 110 µg/mL, the “Titer (μg/ml) Day 6” value ([1]; 0.1 mM) is reported as 260 µg/mL and the “Titer (μg/ml) Day 3” value ([1]; 0.5 mM) is reported as 120 µg/mL. For the same compound, the “Titer (μg/ml) Day 6” value ([1]; 0.5 mM) was 250 µg/mL, the “Titer (μg/ml) Day 3” value ([1]; 1 mM) was 100 µg/mL and the “Titer (μg/ml) Day 6” value ([1]; 1 mM) was 200 µg/mL. For the same compound, the “protein titer compared with the no inducer control culture” value [1] was “did not induce protein titers above that seen in the no inducer control culture”.
